Data taken from PubChem BioAssay (NCI).
Where “and” joins values, the source holds several entries; their conditions need not be identical. Equal values may be shown once.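 In this assay, cells in 96-well plates receive the compound at five concentrations for 48 hours. Endpoints are linearly interpolated between the surrounding concentrations. GI50 marks 50% less growth. Definition used: TGI = concentration required for complete inhibition of growth.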

Key:
Assay in all cases: NCI tumour cell line growth inhibition, 48 h
COLO 205 colon = system: COLO 205 colon
OVCAR-3 ovarian = system: OVCAR-3 ovarian
A498 renal = system: A498 renal
U251 CNS = system: U251 CNS
DU-145 prostate = system: DU-145 prostate
SF-268 CNS = system: SF-268 CNS
SN12C renal = system: SN12C renal
UO-31 renal = system: UO-31 renal

Row | SMILES | GI50 (COLO 205 colon) | TGI (COLO 205 colon) | GI50 (OVCAR-3 ovarian) | TGI (OVCAR-3 ovarian) | GI50 (A498 renal) | TGI (A498 renal) | GI50 (U251 CNS) | TGI (U251 CNS) | GI50 (DU-145 prostate) | TGI (DU-145 prostate) | GI50 (SF-268 CNS) | TGI (SF-268 CNS) | GI50 (SN12C renal) | TGI (SN12C renal) | GI50 (UO-31 renal) | TGI (UO-31 renal)
1 | N#CSc1c[nH]c2cccc(/C=C/C(=O)/C=C(O)/C=C/c3cccc4[nH]cc(SC#N)c34)c12 | 423 nM | 1070 nM | 225 nM | 1090 nM | 1030 nM | 4270 nM | 185 nM | 1140 nM | 484 nM | 986 nM | 528 nM | 1860 nM | 364 nM | 1570 nM | 197 nM | 652 nM
2 | COC(=O)[C@@H](C)C[C@H](Cc1ccccc1)NC(=O)c1nc([C@@H](C[C@H](C(C)C)N(C)C(=O)[C@@H](NC(=O)[C@H]2CC(=O)CCN2C)C(C)C)OC(C)=O)sc1C(C)C | 208 nM | 1690 nM | 54.2 nM | 620 nM | 82.6 nM | 818 nM | 352 nM | > 10500 nM | 115 nM | > 5550 nM | 531 nM | > 16700 nM | 462 nM | > 16700 nM | 951 nM | > 10500 nM
3 | CC(=O)O[C@@H]1[C@H]2O[C@H]2[C@H]2O[C@@]2(COC(=O)c2ccccc2)[C@H]1OC(C)=O | – | > 100000 nM | – | > 100000 nM | – | > 100000 nM | – | > 100000 nM | – | > 100000 nM | – | > 100000 nM | – | > 100000 nM | – | > 100000 nM
4 | Nc1nc(-c2ccccn2)c(-c2ccc3ncccc3n2)s1 | > 25000 nM | > 25000 nM | > 25000 nM | > 25000 nM | > 25000 nM | > 25000 nM | > 25000 nM | > 25000 nM | > 25000 nM | > 25000 nM | > 25000 nM | > 25000 nM | > 25000 nM | > 25000 nM | > 25000 nM | > 25000 nM
5 | c1c[nH]c(CN2CCN(Cc3ncc[nH]3)CC2)n1 | – | > 100000 nM | – | > 100000 nM | – | > 100000 nM | – | > 100000 nM | – | > 100000 nM | – | > 100000 nM | – | > 100000 nM | – | > 100000 nM
6 | Nc1c2ccccc2nc2ccccc12 | 966 nM and 1830 nM | 2360 nM and 4450 nM | 2200 nM and 2910 nM | 6770 nM and 8910 nM | 1070 nM and 2180 nM | 2370 nM and 7280 nM | 2160 nM and 3340 nM | 8000 nM and 13100 nM | 2020 nM and 2570 nM | 5510 nM and 6860 nM | 1630 nM and 3470 nM | 4450 nM and 19700 nM | 1500 nM and 2610 nM | 12400 nM and 10500 nM | 1250 nM and 1600 nM | 2750 nM and 7340 nM
7 | CCn1nc(C#Cc2c(C)ccc3c(Nc4ccc(Cl)cc4)nccc23)c2c(N)ncnc21 | 2360 nM | > 100000 nM | 3460 nM | > 100000 nM | 2540 nM | 8650 nM | 4430 nM | > 100000 nM | 5740 nM | > 100000 nM | 5360 nM | > 100000 nM | 3840 nM | > 100000 nM | 2090 nM | > 100000 nM
8 | OC1(c2ccccc2)c2ccccc2N(c2ccccc2)c2ccc(Cl)cc21 (stereo unspecified) | 147 nM | 338 nM | 147 nM | 304 nM | 198 nM | 765 nM | 201 nM | 536 nM | 412 nM | 1390 nM | 311 nM | 1140 nM | 224 nM | 712 nM | 380 nM | 1510 nM
9 | O=C(c1ccco1)c1c(C(F)(F)F)n([O-])c2cc(Cl)c(Cl)cc2[n+]1=O | 1820 nM | 18300 nM | 79.8 nM | 316 nM | 1530 nM | 3620 nM | 705 nM | 1430 nM | 787 nM | 2030 nM | 236 nM | 774 nM | 650 nM | 1410 nM | 46.5 nM | 211 nM
10 | O=c1[nH]c(-c2ccncc2)nc2sc3c(c12)CCCCCC3 | > 100000 nM | > 100000 nM | > 100000 nM | > 100000 nM | > 100000 nM | > 100000 nM | > 100000 nM | > 100000 nM | > 100000 nM | > 100000 nM | > 100000 nM | > 100000 nM | > 100000 nM | > 100000 nM | > 100000 nM | > 100000 nM
11 | CCCCCCCCCCCCNC(=O)N[C@H](C(=O)N[C@H]1/C=C/OCCNC(=O)/C=C/[C@H](C(C)C)NC1=O)C(C)C | 20000 nM | > 57400 nM | 568 nM | > 78700 nM | 7810 nM | 57000 nM | 2150 nM | > 55200 nM | 14000 nM | > 100000 nM | 7990 nM | > 100000 nM | 23600 nM | > 100000 nM | > 100000 nM | > 100000 nM
12 | CC1(C)N=C(N)N=C(N)N1c1cccc(CC(=O)Nc2ccccc2)c1 | 47300 nM | > 100000 nM | 32100 nM | > 100000 nM | 22800 nM | > 100000 nM | 4960 nM | > 100000 nM | 12700 nM | > 100000 nM | 1350 nM | > 100000 nM | 4840 nM | > 100000 nM | > 100000 nM | > 100000 nM
